System: 857933-349-R-J2-PDC complex spheroid viability
Experiment: Anticancer human tumor 857933-349-R-J2-PDC patient-derived colon adenocarcinoma cell line growth inhibition [POLQ]
Conditions: for IC50: curve of first compound; for viability, T/C: stronger effect = lower value
Outline: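 PDC + HUVEC + MSC complex spheroids; POLQ inhibitors ± partner drugs; top conc. at/near clinical Cmax, else 10 microM (SN-38 1 microM), half-log dilutions; 37 degrees C, 5% CO2.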

[1] = second compound 0.0316 µM, first compound 0.0316 µM
[2] = second compound 0.0316 µM, first compound 0.1 µM
[3] = second compound 0.0316 µM, first compound 0.316 µM
[4] = second compound 0.0316 µM, first compound 1 µM
[5] = second compound 0.1 µM, first compound 0.0316 µM
[6] = second compound 0.1 µM, first compound 0.1 µM
[7] = second compound 0.1 µM, first compound 0.316 µM
[8] = second compound 0.1 µM, first compound 1 µM
[9] = second compound 0.316 µM, first compound 0.0316 µM
[10] = second compound 0.316 µM, first compound 0.1 µM
[11] = second compound 0.316 µM, first compound 0.316 µM
[12] = second compound 0.316 µM, first compound 1 µM
[13] = second compound 1 µM, first compound 0.0316 µM
[14] = second compound 1 µM, first compound 0.1 µM
[15] = second compound 1 µM, first compound 0.316 µM
[16] = second compound 1 µM, first compound 1 µM
[17] = second compound 3.16 µM, first compound 0.0316 µM
[18] = second compound 3.16 µM, first compound 0.1 µM
[19] = second compound 3.16 µM, first compound 0.316 µM
[20] = second compound 3.16 µM, first compound 1 µM
[21] = second compound 10 µM, first compound 0.0316 µM
[22] = second compound 10 µM, first compound 0.1 µM
[23] = second compound 10 µM, first compound 0.316 µM
[24] = second compound 10 µM, first compound 1 µM
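Note: spheroids exposed to compounds for seven days before readout.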

Compound: C=CCn1c(=O)c2cnc(Nc3ccc(N4CCN(C)CC4)cc3)nc2n1-c1cccc(C(C)(C)O)n1 + Nc1ccc(C#CCN(C(=O)Cc2ncc(C(F)(F)F)cc2C(F)(F)F)c2ccc(F)cc2)nn1
- IC50 (second compound 0.0316 µM): > 1000 nM
- IC50 (second compound 0.1 µM): > 1000 nM
- IC50 (second compound 0.316 µM): > 1000 nM
- IC50 (second compound 1 µM): > 1000 nM
- IC50 (second compound 3.16 µM): > 1000 nM
- IC50 (second compound 10 µM): > 1000 nM
- viability, T/C (second compound 0.0316 µM, first compound 0.00316 µM): 105%
- viability, T/C (second compound 0.0316 µM, first compound 0.01 µM): 98.7%
- viability, T/C [1]: 91.4%
- viability, T/C [2]: 105%
- viability, T/C [3]: 88.8%
- viability, T/C [4]: 74.7%
- viability, T/C (second compound 0.1 µM, first compound 0.00316 µM): 105%
- viability, T/C (second compound 0.1 µM, first compound 0.01 µM): 122%
- viability, T/C [5]: 95.4%
- viability, T/C [6]: 91.9%
- viability, T/C [7]: 88.1%
- viability, T/C [8]: 73.8%
- viability, T/C (second compound 0.316 µM, first compound 0.00316 µM): 60.7%
- viability, T/C (second compound 0.316 µM, first compound 0.01 µM): 95.8%
- viability, T/C [9]: 94%
- viability, T/C [10]: 88.7%
- viability, T/C [11]: 103%
- viability, T/C [12]: 75.4%
- viability, T/C (second compound 1 µM, first compound 0.00316 µM): 96.5%
- viability, T/C (second compound 1 µM, first compound 0.01 µM): 93.6%
- viability, T/C [13]: 90.6%
- viability, T/C [14]: 106%
- viability, T/C [15]: 102%
- viability, T/C [16]: 74.4%
- viability, T/C (second compound 3.16 µM, first compound 0.00316 µM): 102%
- viability, T/C (second compound 3.16 µM, first compound 0.01 µM): 93.2%
- viability, T/C [17]: 74.9%
- viability, T/C [18]: 101%
- viability, T/C [19]: 68.8%
- viability, T/C [20]: 75.9%
- viability, T/C (second compound 10 µM, first compound 0.00316 µM): 113%
- viability, T/C (second compound 10 µM, first compound 0.01 µM): 106%
- viability, T/C [21]: 94%
- viability, T/C [22]: 78.7%
- viability, T/C [23]: 85.9%
- viability, T/C [24]: 66.5%

Compound: Nc1ccn(C2OC(CO)C(O)C2(F)F)c(=O)n1 (centres undefined) + COC1C(OC(N)=O)C(O)C(Oc2ccc3c(O)c(NC(=O)c4ccc(O)c(CC=C(C)C)c4)c(=O)oc3c2C)OC1(C)C
- IC50 (second compound 0.0316 µM): 159 nM
- IC50 (second compound 0.1 µM): 152 nM
- IC50 (second compound 0.316 µM): 148 nM
- IC50 (second compound 1 µM): 164 nM
- IC50 (second compound 3.16 µM): 138 nM
- IC50 (second compound 10 µM): 162 nM
- viability, T/C [1]: 68.6%
- viability, T/C [2]: 63.7%
- viability, T/C [3]: 30.3%
- viability, T/C [4]: 17.6%
- viability, T/C (second compound 0.0316 µM, first compound 3.16 µM): 12.9%
- viability, T/C (second compound 0.0316 µM, first compound 10 µM): 11.4%
- viability, T/C [5]: 91.6%
- viability, T/C [6]: 63.3%
- viability, T/C [7]: 26.3%
- viability, T/C [8]: 17.3%
- viability, T/C (second compound 0.1 µM, first compound 3.16 µM): 11.3%
- viability, T/C (second compound 0.1 µM, first compound 10 µM): 11.4%
- viability, T/C [9]: 67.3%
- viability, T/C [10]: 64.5%
- viability, T/C [11]: 22.4%
- viability, T/C [12]: 16.8%
- viability, T/C (second compound 0.316 µM, first compound 3.16 µM): 13.5%
- viability, T/C (second compound 0.316 µM, first compound 10 µM): 10.9%
- viability, T/C [13]: 74.1%
- viability, T/C [14]: 68.5%
- viability, T/C [15]: 25.5%
- viability, T/C [16]: 19.6%
- viability, T/C (second compound 1 µM, first compound 3.16 µM): 14.5%
- viability, T/C (second compound 1 µM, first compound 10 µM): 7.53%
- viability, T/C [17]: 82.1%
- viability, T/C [18]: 59.4%
- viability, T/C [19]: 25.8%
- viability, T/C [20]: 16.8%
- viability, T/C (second compound 3.16 µM, first compound 3.16 µM): 12.8%
- viability, T/C (second compound 3.16 µM, first compound 10 µM): 11.8%
- viability, T/C [21]: 77.7%
- viability, T/C [22]: 65.6%
- viability, T/C [23]: 28.2%
- viability, T/C [24]: 14.9%
- viability, T/C (second compound 10 µM, first compound 3.16 µM): 16.3%
- viability, T/C (second compound 10 µM, first compound 10 µM): 11.8%

Source: PubChem BioAssay AID1963836 (Molecular Pharmacology Branch, DTP, NCI, 2024)
